Tests used:
Prothrombin = Prothrombin (Homo sapiens, UniProt P00734); test: Inhibitory activity against human thrombin
Coagulation factor X = Coagulation factor X (Homo sapiens, UniProt P00742); test: Inhibition of Coagulation factor Xa
Coagulation factor X, sequence (P00742 41-179 limits assumed): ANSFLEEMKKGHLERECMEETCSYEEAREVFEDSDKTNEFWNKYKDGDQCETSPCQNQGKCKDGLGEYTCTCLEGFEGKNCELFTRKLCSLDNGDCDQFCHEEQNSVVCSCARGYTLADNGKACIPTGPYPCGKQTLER
Coagulation factor X, sequence (P00742 235-488 limits assumed): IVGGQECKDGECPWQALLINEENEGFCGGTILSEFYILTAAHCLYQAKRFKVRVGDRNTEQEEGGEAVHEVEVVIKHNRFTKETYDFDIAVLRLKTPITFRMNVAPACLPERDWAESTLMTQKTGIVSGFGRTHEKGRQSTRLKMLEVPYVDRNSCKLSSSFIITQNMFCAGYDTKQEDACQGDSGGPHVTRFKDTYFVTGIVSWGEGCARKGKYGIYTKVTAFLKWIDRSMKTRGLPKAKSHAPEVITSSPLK

SMILES	Ki (Prothrombin)	Ki (Coagulation factor X)
N=C(N)c1cccc(Cn2c(C(=O)NCC34C[C@H]5C[C@@H](C3)C[C@@H](C4)C5)cc3c(O)cccc32)c1	–	274 nM
Cc1cccc2c1cc(C(=O)NCc1cccc(C(=N)N)c1)n2Cc1cccc(C(=N)N)c1	2390 nM	–
N=C(N)c1cccc(CNC(=O)c2c(Cl)c3ccccc3n2Cc2cccc(C(=N)N)c2)c1	4240 nM	–
C[n+]1ccc(CNC(=O)c2cc3cc(N)ccc3n2Cc2cccc(C(=N)N)c2)cc1	57000 nM	100 nM
C[N+](C)(C)c1ccc(CNC(=O)c2cc3c(O)cccc3n2Cc2cccc(C(=N)N)c2)cc1	9090 nM	–
CC(C)(C)OC(=O)Nc1ccc2c(c1)cc(C(=O)NCc1ccc([N+](C)(C)C)cc1)n2Cc1cccc(C(=N)N)c1	28000 nM	–
N=C(N)c1cccc(Cn2c(C(=O)NCc3cc(C(F)(F)F)cc(C(F)(F)F)c3)cc3c(O)cccc32)c1	1180 nM	99 nM
N=C(N)c1ccc(CNC(=O)c2cc3cc(N)ccc3n2Cc2cccc(C(=N)N)c2)cc1	5600 nM	89 nM
Cc1cccc2c1cc(C(=O)NCc1cc(Cl)cc(Cl)c1)n2Cc1cccc(C(=N)N)c1	1610 nM	–
N=C(N)c1cccc(COC(=O)c2cc3ccccc3n2Cc2cccc(C(=N)N)c2)c1	2460 nM	–
Cc1cc(C)cc(CNC(=O)c2cc3c(C)cccc3n2Cc2cccc(C(=N)N)c2)c1	1420 nM	–
Cc1cccc2c1cc(C(=O)NCC1CCC(C(=N)N)CC1)n2Cc1cccc(C(=N)N)c1 (stereo not given)	–	45 nM
N=C(N)c1cccc(Cn2c(C(=O)NCc3cc(Cl)cc(Cl)c3Cl)cc3c(O)cccc32)c1	270 nM	99 nM
COc1cccc2c1cc(C(=O)NCc1ccc(O)cc1)n2Cc1cccc(C(=N)N)c1	–	183 nM

Results, then the compound that gave them:

Ki (Prothrombin)	Ki (Coagulation factor X)	SMILES
4200 nM	–	N=C(N)c1ccc(CNC(=O)c2cc3c(O)cccc3n2Cc2cccc(C(=N)N)c2)cc1
200 nM	15 nM	Cc1cccc2c1cc(C(=O)NCc1nccc3ccccc13)n2Cc1cccc(C(=N)N)c1
480 nM	–	Cc1cc(CNC(=O)c2cc3c(O)cccc3n2Cc2cccc(C(=N)N)c2)cc(C(F)(F)F)c1
1710 nM	39 nM	N=C(N)c1cccc(Cn2c(C(=O)NCc3cc(F)cc(C(F)(F)F)c3)cc3c(O)cccc32)c1
290 nM	20 nM	N=C(N)c1cccc(Cn2c(C(=O)NCc3nccc4ccccc34)cc3c(O)cccc32)c1
15800 nM	140 nM	C[N+](C)(C)c1ccc(CNC(=O)c2cc3cc(Cl)ccc3n2Cc2cccc(C(=N)N)c2)cc1
3900 nM	23 nM	Cc1cccc2c1cc(C(=O)NCc1ccc([N+](C)(C)Cc3ccccc3)cc1)n2Cc1cccc(C(=N)N)c1
–	400 nM	C[N+](C)(C)c1ccc(CNC(=O)c2cc3ccccc3n2Cc2cccc(C(=N)N)c2)cc1
2070 nM	50 nM	Cc1cccc2c1c(Br)c(C(=O)NCc1cccc(C(=N)N)c1)n2Cc1cccc(C(=N)N)c1
3290 nM	26 nM	N=C(N)c1cccc(CNC(=O)c2c(Br)c3ccccc3n2Cc2cccc(C(=N)N)c2)c1

From ChEMBL document CHEMBL1135480, “Design and quantitative structure-activity relationship of 3-amidinobenzyl-1H-indole-2-carboxamides as potent, nonchiral, and selective inhibitors of blood coagulation factor Xa” (J Med Chem, 2002)
